One test deals with CD3ζ. As to the kind of experiment: tyrosine phosphorylation of CD3ζ, immunoprecipitation and anti-phosphotyrosine immunoblot. In kind it is cell-based, mouse. Here is the method:
Immunoprecipitation and Immunoblotting. Enriched primed T cells (2×10^6 cells) in a 24 well Corning plate were TCR-stimulated with 2C11 in the presence of α-MSH (30 pg/ml) under serum-free conditions for 15 minutes. The T cells were collected, placed in a microcentrifuge tube and washed once with 10 mM Tris buffered saline (TBS) and lysed for 30 minutes in 100 μl of ice cold lysate buffer (10 mM TBS, 1% NP-40, 0.5% sodium deoxycholate, 0.1% SDS, 100 μg/ml phenylmethylsulfonyl fluoride (PMSF), 60 μg/ml Aprotinin, and 1 mM sodium orthovanadate). The cells were passed through a 21 gauge needles three times, and an additional 2 μl of 10 mg/ml PMSF was added. The tubes were incubated for an additional 30 minutes on ice and were centrifuged for 20 minutes, 4° C., 13,000×g. The supernatant was collected and used as total cellular lysate. The protein concentration was measured, and added to equal amounts of protein lysate were 20 μg/ml anti-CD3ζ antibody, or anti-CD3ε antibody plus rabbit anti-hamster IgG antibody and incubated overnight at 4° C. The rabbit anti-hamster IgG was needed for the CD3ε immunoprecipitation, since much of the CD3ε was bound by 2C11 a hamster anti-mouse […] and hamster antibody weakly binds protein-G. Protein-G sepharose beads (Pharmacia, Piscataway, N.J.) were added to the antibody containing lysates and incubated for 1 hour at room temperature with end over end agitation. The beads were centrifuged and washed 4 times with 10 mM TBS containing 0.5% sodium deoxycholate. After the final wash the beads were resuspended in 20 μl of distilled water and 20 μl non-reducing SDS Tris-glycine sample buffer (Novex, San Diego, Calif.), boiled for 5 minutes and applied into two wells (20 μl) of a 8-16% Tris-glycine polyacrylamide gel (Novex).
Following electrophoresis in a Novex Xcell II minicell and blot module, the proteins were transferred from the gel onto a nitrocellulose membrane (Novex) by electroblotting. The membrane was blocked with 1% BSA in 0.01 M TBS for 1 hour room temperature. The blocked membrane was placed in a sealable bag containing 5 ml of alkaline-phosphatase conjugated anti-phosphotyrosine antibody PY20 diluted 1/2000 in 1% BSA-TBS buffer. The membrane was incubated overnight at room temperature. The PY20 blotted membrane was washed 3 times with wash buffer containing 1% BSA-TBS and 0.05% Tween-20 and incubated with alkaline phosphatase substrate NBT-BCIP (Sigma Chemical) until bands appeared. The membrane was washed with distilled water. In parallel, some lanes on the membrane were immunoblotted with anti-CD3ζ antibody and alkaline phosphatase conjugated anti-mouse IgG (Sigma Chemical) to detect the relative mobility of CD3ζ protein. Membranes were digitally photographed and analyzed using NIH Image software to integrate the band intensities relative to band area minus background. […]
The enriched primed T cells (2×10^6 cells) were incubated with anti-CD3 in the presence of α-MSH (30 pg/ml) for 15 minutes. […] The immunoprecipitates were analyzed by non-reducing SDS-PAGE (on a 8-16% gradient gel), followed by transfer to a nitrocellulose filter and immunoblotting with anti-phosphotyrosine antibody: (1) Unstimulated primed T cells treated with α-MSH; (2) Unstimulated primed T cells incubated in media alone; (3) Enriched primed T cells TCR-stimulated in the absence of α-MSH; (4) Enriched primed T cells TCR-stimulated in the presence of α-MSH. […]
A general note: In western blotting, separated proteins are transferred to a membrane and probed.

The test system of a further test is primed T cells. As to the kind of experiment: proliferation of TCR-stimulated primed T cells (3H-thymidine incorporation). In kind it is cell-based, mouse (BALB/c). The note with it: primed T cells + anti-CD3ε 2C11, α-MSH present, 3H-thymidine at 24 h, counted at 48 h. (Incorporation of labelled thymidine or its analogues reports DNA synthesis.)

We go through one substance from patent US20060127400A1, “Activation of regulatory T cells by alpha-melanocyte stimulating hormone” (THE SCHEPENS EYE RESEARCH INSTITUTE, INC., priority 1999, published 2006).

“Also recorded” adds a separate entry of the source. No end group written: not given here.

With “α-melanocyte stimulating hormone (SYSMEHFRWGKPV; not fully specified; ends and bridges not checked; UniProt P01189 138-150, looked up) [α-MSH, synthetic α-MSH (Peninsula Laboratories); thirteen-amino acid neuropeptide derived from POMC]”, in the test on CD3ζ (TCR-stimulated primed T cells, versus stimulated in the absence of α-MSH), the “increase in CD3ζ tyrosine phosphorylation” value came out at 6.7 fold. The “relative intensity of phosphotyrosine band, CD3ζ” value in the test with CD3ζ (TCR-stimulated primed T cells, α-MSH 30 pg/ml, 15 minutes (lane 4; without α-MSH 10)) turned out to be 67; with CD3ζ (unstimulated primed T cells, α-MSH 30 pg/ml, 15 minutes (lane 1; media alone 1)), 4. Moreover, the “overall level of tyrosine phosphorylation of CD3ζ” value in the test on CD3ζ (TCR-stimulated primed T cells, α-MSH 30 pg/ml, 15 minutes, Example III (FIG. 18A)) is on record as “no significant change”. Also, the “stimulation of tyrosine phosphorylation of CD3ζ dimers” value in the test on CD3ζ (unstimulated primed T cells) is on record as 4 fold. Besides, the “TCR-stimulated T cell proliferation” value in the test with primed T cells is “no affect; also recorded: no effect”.
